Like-named read-outs stand apart in the source and are kept apart here.

A short description of data set [1]: Inhouse trials: Arsenic Trioxide in glycerin with sodium hydroxide. The format is physicochemical. Conditions: dissolved first in sodium hydroxide solution, then added to Glycerin.
For data set [2] the following is noted: cited from earlier work.

On to Arsenic Trioxide, for which, in data set [1], the “concentrated solution of Arsenic Trioxide formed in presence of Glycerin” value worked out at 157400 µg/mL. The “solubility of Arsenic Trioxide in 100 g of water” value in data set [2] (0° C.) is listed as 1.2 g; in data set [2] (25° C.), 2.1 g; in data set [2] (75° C.), 5.6 g. Further, the “solubility in alcohol, chloroform, and ether” value in data set [2] was “insoluble”.
